The supplement of paper PMC7801607

What was measured:
[1] = tested on: Plasmodium falciparum NF54 asexual blood stage
[2] = tested on: Plasmodium falciparum Dd2 asexual blood stage
HepG2-A16-CD81 = assay: CC50; higher = less toxic
Protocol: (§1)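 Dose-response IC50s: P. falciparum NF54 asexual (pLDH, 72 h; 6 means >6 µM), Dd2 asexual (SYBR Green I, 72 h, 1536-well; 5 means >5 µM), NF54 stage IV/V gametocytes (luciferase 48 h, ATP 24 h, PrestoBlue 48 h), P. berghei liver stage in HepG2-A16-CD81 (luciferase, 48 h; 5 means >5 µM), HepG2 CC50 (CellTiter-Glo; 5 means >5 µM).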

[3] = tested on: Plasmodium berghei ANKA liver stage in HepG2-A16-CD81
[4] = tested on: Plasmodium falciparum NF54 stage IV/V gametocytes
Protocol: as §1

Row | IC50 [1] [µM] | IC50 [2] [µM] | IC50 [3] [µM] | IC50 (ATP bioluminescence) [4] [µM] | Compound | CC50 (HepG2-A16-CD81) [µM]
1 | 2.11 | > 5 | – | – | CCC(C)(C)c1ccc(CC(C)CN2C[C@@H](C)O[C@@H](C)C2)cc1 (stereo not given in full) | –
2 | > 6 | > 5 | – | – | O=C(Nc1nnc(-c2ccc(Cl)cc2)o1)c1nc2ccccc2s1 | –
3 | 0.149 | 0.022 | > 5 | – | CN1CCN(c2ccc3[nH]c(-c4ccc5[nH]c(-c6ccc(O)cc6)nc5c4)nc3c2)CC1 | > 5
4 | > 6 | > 5 | – | 0.62 | CN(C)CCCNC(=O)c1ccc(-c2cc(O)c3ncccc3c2)cc1 | –
5 | 5.7 | > 5 | – | – | NC1C2CC3CC(C2)CC1C3 (stereo not given) | –
6 | 2.85 | 2.29 | – | – | CC(C)(C)NC(=O)[C@@H]1CN(Cc2cnc3occc3c2)CCN1C[C@@H](O)C[C@@H](Cc1ccccc1)C(=O)N[C@H]1c2ccccc2C[C@H]1O | –
7 | > 6 | > 5 | – | – | COc1ccc(CNC(=O)C2CCN([C@H](C)c3cccc4ccccc34)CC2)cc1 | –
8 | 5.84 | > 5 | – | – | CCc1cc(O)c(Oc2ccc(C(N)=O)cc2F)cc1F | –
9 | > 6 | > 5 | – | – | O=C(Nc1ccc(N2CCN(C(=O)c3ccccc3)CC2)cc1)c1ccc2c(c1)OCO2 | –
10 | > 6 | > 5 | – | – | CCOCc1nc2c(N)nc3ccccc3c2n1CC(C)(C)O | –
11 | – | 2.06 | > 5 | – | COC1CC2CCC(C)C(O)(O2)C(=O)C(=O)N2CCCCC2C(=O)OC(C(C)CC2CCC(OCCO)C(OC)C2)CC(=O)C(C)/C=C(\C)C(O)C(OC)C(=O)C(C)CC(C)/C=C/C=C/C=C/1C (stereo not given) | > 5
12 | – | 4.44 | 3.57 | – | CC[C@@]1(O)C(=O)OCc2c1cc1n(c2=O)Cc2cc3c([N+](=O)[O-])cccc3nc2-1 | > 5
13 | > 6 | > 5 | – | – | CC1CCc2c(N3CCC(O)CC3)c(F)cc3c(=O)c(C(=O)O)cn1c23 (stereo not given) | –
14 | 0.703 | > 5 | – | – | CCc1nc(N)nc(N)c1C#CCc1ccccc1 | –
15 | – | > 5 | – | 2.75 | COc1cc(NS(=O)(=O)c2ccc(C)cc2)c2ncccc2c1 | –
16 | 2.3 | > 5 | – | – | Nc1nc(F)nc2c1ncn2[C@H]1O[C@@H](CO)[C@H](O)[C@@H]1O | –
17 | 0.687 | > 5 | – | – | O=[N+]([O-])c1ccc2c(CCc3c[nH]c4ccccc34)c[nH]c2c1 | –
18 | 0.765 | 4.99 | – | – | Fc1ccc(-c2nc(-c3c[nH]c4ccc(Br)cc34)[nH]c2-c2ccc(F)cc2)cc1 | –
19 | > 6 | > 5 | – | – | CCOc1noc2cc(OCCC3CCN(c4ccc(C)nn4)CC3)ccc12 | –
20 | 2.55 | > 5 | – | – | Cc1ccc(NC(=O)c2ccc(CN3CCN(C)CC3)cc2)cc1Nc1nccc(-c2cccnc2)n1 | –
21 | > 6 | > 5 | – | – | Cc1c(OCC(F)(F)F)ccnc1CS(=O)c1nc2ccccc2[nH]1 (stereo not given) | –
22 | – | > 5 | – | 5.86 | Clc1ccc(Cn2c(CN3CCCC3)nc3ccccc32)cc1 | –
23 | 0.472 | > 5 | – | – | O=C(Nc1nnc(-c2ccccc2)o1)c1ccc(F)cc1 | –
24 | 5.04 | > 5 | – | – | Oc1c(C(Nc2ccccn2)c2ccccc2)ccc2cccnc12 (stereo not given) | –

Row | IC50 [1] [µM] | IC50 [2] [µM] | IC50 [3] [µM] | IC50 (ATP bioluminescence) [4] [µM] | Compound | CC50 (HepG2-A16-CD81) [µM]
25 | > 6 | > 5 | – | – | CCC[C@@H]1C[C@@H](C(=O)N[C@@H]([C@H]2O[C@H](SC)[C@H](O)[C@@H](O)[C@H]2O)[C@H](C)Cl)N(C)C1 | –
26 | > 6 | 3.66 | – | 2.13 | CC(C)Oc1ccc(-c2nc(-c3cccc4c3CC[C@@H]4NCCO)no2)cc1C#N | –
27 | > 6 | > 5 | – | – | COc1ccc(CNC(=O)C(NS(=O)(=O)c2ccc3nc(C)sc3c2)C(C)C)cc1 (stereo not given) | –
28 | > 6 | > 5 | – | – | Cc1oncc1C(=O)Nc1ccc(C(F)(F)F)cc1 | –
29 | > 6 | > 5 | – | – | CCCCCc1ccc(C(=O)NCCn2cc(CCCCCc3cnc(N)[nH]3)nn2)cc1 | –
30 | > 6 | – | – | 1.29 | C[Si]1(C)CCN(Cc2cc(-c3ccc(Cl)cc3)n(-c3ccc(Cl)cc3)n2)CC1 | –
31 | > 6 | > 5 | – | – | O=C(NCc1ccc(F)cc1)c1c(O)c2ncccc2[nH]c1=O | –
32 | > 6 | > 5 | – | – | Cc1ccc(NC(=O)c2cc(Cl)ccc2O)cc1 | –
33 | > 6 | > 5 | – | – | CC(C)Cn1c(=O)n(C)c(=O)c2c(-c3cncn3C)n(Cc3cccc4ccccc34)nc21 | –
34 | > 6 | > 5 | – | – | CC(C)Nc1nc2cc(Cl)c(Cl)cc2n1[C@H]1O[C@@H](CO)[C@H](O)[C@@H]1O | –
35 | 1.58 | > 5 | – | – | CC1CN(c2ncnc3c2c(-c2ccccc2)cn3-c2ccc(F)cc2)CC(C)O1 (stereo not given) | –
36 | 0.825 | > 5 | – | – | OC1O[C@H](CSc2ccc(F)cc2)[C@@H](O)[C@H]1O (stereo not given in full) | –
37 | 0.138 | > 5 | – | – | COc1ccc2cc3[n+](cc2c1OCCN(CCn1cncn1)Cc1ccc(F)cc1F)CCc1cc2c(cc1-3)OCO2 | –
38 | > 6 | > 5 | – | – | COc1ccc(SC(=O)N[C@H](CCC(=O)O)C(=O)O)cc1 | –
39 | 1.5 | > 5 | – | – | CN(C)[C@@H]1C(=O)C(C(N)=O)=C(O)[C@@]2(O)C(=O)C3=C(O)c4c(O)c(NC(=O)CN5CCCC5)cc(F)c4C[C@H]3C[C@@H]12 | –
40 | 2.16 | 4.09 | – | – | Nc1cc(N)c2nc(-c3ccccc3)c(Nc3ccc(F)cc3)nc2c1 | –
41 | – | > 5 | – | 1.2 | NCC(=O)Nc1ccc(-n2nc(C(F)(F)F)cc2-c2ccc3c(ccc4ccccc43)c2)cc1 | –
42 | > 6 | > 5 | – | – | C=C[C@]1(C)C[C@@H](OC(=O)CS[C@@H]2C[C@H]3CC[C@@H](C2)N3C)[C@]2(C)[C@H](C)CC[C@]3(CCC(=O)[C@H]32)[C@@H](C)[C@@H]1O | –
43 | – | 0.108 | 0.000527 | – | COc1cc(NCc2ccc3nc(N)nc(N)c3c2C)cc(OC)c1OC | 1.66
44 | – | > 5 | – | 1.1 | C[C@@H](NC(=O)c1cccc(-c2c[nH]c(-c3cc4ccccc4cn3)n2)c1)c1ccc(F)cc1 | –
45 | 1.78 | 1.01 | – | – | COc1ccc2nc(-c3ccccc3)cc(O)c2c1 | –
46 | > 6 | > 5 | – | – | Nc1cnn(C2OC(CO)C(O)C2O)c(=O)n1 (stereo not given) | –
47 | – | 1.61 | 1.73 | – | O=c1cc(NCCCN[C@@H]2CCOc3c(Br)cc(Br)cc32)[nH]c2ccsc12 | > 5
48 | 5.1 | > 5 | – | – | Cc1ccc(S(=O)(=O)Nc2cccc3cccnc23)cc1 | –

Row | IC50 [1] [µM] | IC50 [2] [µM] | IC50 [3] [µM] | IC50 (ATP bioluminescence) [4] [µM] | Compound | CC50 (HepG2-A16-CD81) [µM]
49 | > 6 | > 5 | – | – | CCCCc1ccc(S(=O)(=O)Nc2cc(C)on2)cc1 | –
50 | > 6 | > 5 | – | – | C=CCN(C(=O)OCc1ccc([N+](=O)[O-])cc1)C1CCN(CC[C@](C)(CN(C)S(=O)(=O)c2ccccc2)c2ccccc2)CC1 | –
51 | 2.12 | > 5 | – | – | O=C(c1ccccc1)N1CCN(c2ccccc2NC(=O)C(Cl)(Cl)Cl)CC1 | –
52 | – | > 5 | – | – | Clc1ccc(COC(Cn2ccnc2)c2ccc(Cl)cc2Cl)c(Cl)c1 (stereo not given) | –
53 | – | > 5 | – | – | CC(=O)N1CCN(c2ccc(OCC3COC(Cn4ccnc4)(c4ccc(Cl)cc4Cl)O3)cc2)CC1 (stereo not given) | –
54 | – | > 5 | – | – | COc1cc(Cc2cnc(N)nc2N)cc(OC)c1OC | –
55 | – | > 5 | – | – | O=C(Cn1cnc2ccccc2c1=O)Nc1ccccc1 | –
56 | – | > 5 | – | – | CC(=O)NC[C@H]1CN(c2ccc(N3CCSCC3)c(F)c2)C(=O)O1 | –
57 | – | > 5 | – | – | c1ccc(-c2nnc3c4ccccc4c(N4CCNCC4)nn23)cc1 | –
58 | – | > 5 | – | 0.474 | CC(C)=CCC/C(C)=C/CNCCNC1C2CC3CC(C2)CC1C3 (stereo not given) | –
59 | – | > 5 | – | – | O=C(N[C@H](CCS)C(=O)N[C@H](Cc1ccccc1)C(=O)O)c1cc2ccccc2[nH]1 | –
60 | – | > 5 | – | – | O=C(O)c1cc(-c2ccc(Br)cc2)nc2ccc(Cl)cc12 | –
61 | – | > 5 | – | – | COc1cc(Cc2cc(N)nc(N)n2)cc(OC)c1OC | –
62 | – | > 5 | – | – | O=C(Nc1ncc(Cc2cccc3ccccc23)s1)C1CCCCC1 | –
63 | 3.65 | > 5 | – | – | Cn1cncc1[C@@](N)(c1ccc(Cl)cc1)c1ccc2c(c1)c(-c1cccc(Cl)c1)cc(=O)n2C | –
64 | – | > 5 | – | 0.95 | CC(C)c1ccc(COc2cccc(-c3cc(S(C)=O)c(C#N)c(=O)[nH]3)c2)cc1 (stereo not given) | –
65 | – | > 5 | – | – | CCCC(=O)OCCc1ccccc1 | –
66 | – | 1.01 | > 5 | – | Fc1ccc2c(/C=C/c3cccnc3)c[nH]c2c1 | > 5
67 | 2.57 | > 5 | – | – | O=C(O)CSc1cc(NS(=O)(=O)c2cccc3cccnc23)c2ccccc2c1O | –
68 | – | > 5 | – | – | O=C(O)C(Cc1c[nH]c2ccccc12)N1C(=O)c2ccccc2C1=O (stereo not given) | –
69 | – | > 5 | – | – | O=[N+]([O-])c1cn2c(n1)OC[C@@H](OCc1ccc(OC(F)(F)F)cc1)C2 | –
70 | – | > 5 | – | – | Nc1nc(O)c2ncn(COCCO)c2n1 | –

Row | Compound | IC50 [1] [µM] | IC50 [2] [µM] | IC50 [3] [µM] | IC50 (ATP bioluminescence) [4] [µM] | CC50 (HepG2-A16-CD81) [µM]
71 | CCCCc1ccc(C(=O)O)nc1 | > 6 | > 5 | – | – | –
72 | Nc1c(C(=O)NCc2ccco2)c2nc3ccccc3nc2n1CCN1CCCCC1 | > 6 | > 5 | – | 3.16 | –
